Converted amounts (≈) assume the structure as drawn.
tested on: Mycobacterium tuberculosis; assay: Antitubercular activity against multidrug-resistant Mycobacterium tuberculosis; format: functional

SMILES	MIC
CN1C/C(=C\c2ccc(Cl)cc2Cl)C(=O)[C@]2(C1)[C@H](c1ccc(Cl)cc1Cl)[C@@H]1CSCN1[C@@]21C(=O)Nc2ccc(Cl)cc21	2.4 µM (≈ 1.63 µg/mL)
CN1C/C(=C\c2ccc(Cl)cc2Cl)C(=O)[C@]2(C1)[C@H](c1ccc(Cl)cc1Cl)[C@@H]1CSCN1[C@@]21C(=O)Nc2ccc([N+](=O)[O-])cc21	0.6 µM (≈ 0.414 µg/mL)
CN1C/C(=C\c2ccc(F)cc2)C(=O)[C@]2(C1)[C@H](c1ccc(F)cc1)[C@@H]1CSCN1[C@@]21C(=O)Nc2ccc([N+](=O)[O-])cc21	1.4 µM (≈ 0.824 µg/mL)
CN1C/C(=C\c2ccc(Br)cc2)C(=O)[C@]2(C1)[C@H](c1ccc(Br)cc1)[C@@H]1CSCN1[C@@]21C(=O)Nc2ccc([N+](=O)[O-])cc21	2.3 µM (≈ 1.63 µg/mL)
CN1C/C(=C\c2ccccc2Cl)C(=O)[C@]2(C1)[C@H](c1ccccc1Cl)[C@@H]1CSCN1[C@@]21C(=O)Nc2ccc([N+](=O)[O-])cc21	2.6 µM (≈ 1.62 µg/mL)
CN1C/C(=C\c2ccc(F)cc2)C(=O)[C@]2(C1)[C@H](c1ccc(F)cc1)[C@@H]1CSCN1[C@@]21C(=O)Nc2ccc(Cl)cc21	2.8 µM (≈ 1.62 µg/mL)
CC[C@@H](CO)NCCN[C@@H](CC)CO [ETHAMBUTOL]	61.2 µM (≈ 12.5 µg/mL)
NNC(=O)c1ccncc1 [ISONIAZID]	11.4 µM (≈ 1.56 µg/mL)
NC(=O)c1cnccn1 [PYRAZINAMIDE]	406 µM (≈ 50 µg/mL)
CO[C@H]1/C=C/O[C@@]2(C)Oc3c(C)c(O)c4c(O)c(c(/C=N/N5CCN(C)CC5)c(O)c4c3C2=O)NC(=O)/C(C)=C\C=C\[C@H](C)[C@H](O)[C@@H](C)[C@@H](O)[C@@H](C)[C@H](OC(C)=O)[C@@H]1C [RIFAMPIN]	3.8 µM (≈ 3.13 µg/mL)

Source: ChEMBL document CHEMBL1153107, “A highly atom economic, chemo-, regio- and stereoselective synthesis and evaluation of spiro-pyrrolothiazoles as antitubercular agents” (2010)
